In patent US20250295626A1, “CARBON MONOXIDE-RELEASING MOLECULE (CORM) OR COMPOSITION THEREOF FOR USE IN THE TREATMENT OR THE PREVENTION OF AN INTESTINAL DYSBIOSIS IN A SUBJECT” (priority 2022, published 2025):

Legend:
Type in all cases: in vivo, C57BL6 mice
[1] = CO accumulation in intestinal tissues after oral administration (hemoCD1 quantification); details: oral 30 mg/kg
Description: Eight-week-old male C57BL6 mice weighing approximately 25 g were treated with an oral administration of either CORM-401 (30 mg/kg) or PBS (control group) and then sacrificed after 1, 3, 6, 24 and 48 hours (n=6 per time point). Organs were collected to determine the levels of CO accumulation in different intestinal tissues following the two treatments. The body compartments where the intestinal microbiota is most likely to be present such as the caecum, caecum content, colon and faeces were analyzed. CO accumulation was quantified using the CO sensitive scavenger hemoCD1 as previously reported by the inventors such as in Mao et al, 2021 [10]; Minegishi et al, 2017 [11]. Briefly, fifty milligrams of tissue were homogenized in 0.5 ml PBS in the presence of hemoCD1 (2-10 μM) and sodium dithionite (1 mg). Tissue homogenates were first sonicated, then samples were centrifuged, and the supernatants filtered before measurements by UV-VIS absorption spectroscopy. The concentration of CO was calculated from the absorbances at 422 and 434 nm using a reported equation (Kitagishi et al, 2010; Braud et al 2018 [13]). • b) Results

[2] = Levels of blood carbon monoxide hemoglobin (COHb) after oral administration
Description: The levels of COHb (carbon monoxide bound to hemoglobin) were measured at different time points after oral administration of CORM-401 in two groups of eight-week-old male C57BL6 mice that were fed either a standard diet (SD) or a high fat diet (HFD) for 14 weeks (n=9-10 per group). CORM-401 was freshly prepared in phosphate buffer solution (PBS) and administered orally at a dose of 30 mg/kg=90 μmoles/kg (n=6) and COHb in blood was measured after 1, 6, 24 and 48 hours. • b) Results

[3] = test system: intestinal microbiota of HFD mice; assay: Abundance of bacterial species of intestinal microbiota in faeces (shotgun metagenomic/metatranscriptomic sequencing)
Description: Eight-week-old male C57BL6 mice weighing approximately 25 g were fed either a standard diet (SD), high fat diet (HFD) or HFD+CORM-401 for 14 weeks (n=9-10 per group). CORM-401 was prepared freshly in phosphate buffer solution (PBS) and administered orally to mice three times a week each time at a dose of (30 mg/kg=90 μmoles/kg) during the entire HFD regime. Faeces from the three groups of mice were then collected after the 14 week HFD regime for microbiota analysis before mice were sacrificed.
The stool samples DNA and RNA (n=3 per group) were extracted and the sequencing was carried out by a shotgun metagenomic/metatranscriptomic technique as previously described. Briefly, a pre-extraction step combining mechanical, enzymatic and chemical procedures was performed prior to extraction by means of a QIAsymphony PowerFecal Pro DNA Kit (QIAGEN). The extracts were used for DNA/RNA library preparation and determination of pair-end sequences using a NextSeq500 Instrument (Illumina). Fastq files were analysed by an in-house software MetaMIC (v2.2.0). The data were filtered based on quality (phred score) and the sequences were mapped against several custom databases, counted and collected in a separate Fastq file. Sequence counts were made for each bacterial species and compared to the environmental control. The number of sequences for each species was used to determine their relative abundance in each group of mice. • b) Results

[4] = HFD + CORM, faeces after 14 weeks, 30 mg/kg orally three times a week, average of 3
[5] = HFD mice treated 14 weeks, 30 mg/kg orally three times a week

For `CN(CC(=O)O)C(=S)[S-].[C-]#[O+].[C-]#[O+].[C-]#[O+].[C-]#[O+].[Mn]` [CORM-401], the “Time at which the maximum CO content was reached” value ([1]; all compartments (caecum, caecum content, colon, faeces)) was 6 h, the “Time after which CO content returned to basal levels” value ([1]; all compartments) was 48 h and the “CO accumulation (time-dependent)” value ([1]; caecum tissue, caecum content, colon and faeces, vs PBS control) was “significantly accumulated”. For the same compound, the “COHb levels in blood” value ([2]; 1 hour after oral administration of 30 mg/kg, both SD-fed and HFD-fed mice) was “significantly increased”, the “Period over which blood COHb gradually decreased to baseline levels” value ([2]; oral 30 mg/kg, SD-fed and HFD-fed mice) was 48 h and the “Abundance of Adlercreutzia equolifaciens” value [3, 4] was 4445 number of sequences. For the same compound, the “Abundance of Aerococcus viridans” value [3, 4] was 1650 number of sequences, the “Abundance of Akkermansia muciniphila” value [3, 4] was 120300 number of sequences and the “Abundance of Alistipes finegoldii” value [3, 4] was 6727 number of sequences. The “Abundance of Alistipes shahii” value [3, 4] was 9490 number of sequences, the “Abundance of Bacteroides caecimuris” value [3, 4] was 14812 number of sequences and the “Abundance of Bacteroides cellulosilyticus” value [3, 4] was 246 number of sequences. For the same compound, the “Abundance of Bacteroides dorei” value [3, 4] was 3093 number of sequences, the “Abundance of Bacteroides fragilis” value [3, 4] was 3651 number of sequences and the “Abundance of Bacteroides xylanisolvens” value [3, 4] was 1151 number of sequences. The “Abundance of Barnesiella viscericola” value [3, 4] was 350 number of sequences, the “Abundance of Blautia sp. YL58” value [3, 4] was 934 number of sequences and the “Abundance of Burkholderiales bacterium YL45” value [3, 4] was 159 number of sequences. For the same compound, the “Abundance of Carnobacterium divergens” value [3, 4] was 1726 number of sequences, the “Abundance of Clostridioides difficile” value [3, 4] was 1101 number of sequences and the “Abundance of Clostridium bolteae” value [3, 4] was 3559 number of sequences. The “Abundance of Enterococcus faecalis” value [3, 4] was 4655 number of sequences, the “Abundance of Enterococcus faecium” value [3, 4] was 7750 number of sequences and the “Abundance of Erysipelotrichaceae bacterium I46” value [3, 4] was 1788 number of sequences. The “Abundance of Faecalibacterium prausnitzii” value [3, 4] was 3622 number of sequences, the “Abundance of Faecalibaculum rodentium” value [3, 4] was 120296 number of sequences and the “Abundance of Faecalitalea cylindroides” value [3, 4] was 1039 number of sequences. For the same compound, the “Abundance of Flavonifractor plautii” value [3, 4] was 7720 number of sequences, the “Abundance of Intestinimonas butyriciproducens” value [3, 4] was 2426 number of sequences and the “Abundance of Lachnoclostridium phocaeense” value [3, 4] was 2366 number of sequences. The “Abundance of Lachnoclostridium sp. YL32” value [3, 4] was 14254 number of sequences, the “Abundance of Lactobacillus acidipiscis” value [3, 4] was 630 number of sequences and the “Abundance of Lactobacillus agilis” value [3, 4] was 2223 number of sequences. For the same compound, the “Abundance of Lactobacillus animalis” value [3, 4] was 1355 number of sequences, the “Abundance of Lactobacillus fermentum” value [3, 4] was 10256 number of sequences and the “Abundance of Lactobacillus gallinarum” value [3, 4] was 928 number of sequences. The “Abundance of Lactobacillus gasseri” value [3, 4] was 61826 number of sequences, the “Abundance of Lactobacillus helveticus” value [3, 4] was 2955 number of sequences and the “Abundance of Lactobacillus johnsonii” value [3, 4] was 162300 number of sequences. The “Abundance of Lactobacillus murinus” value [3, 4] was 4440 number of sequences, the “Abundance of Lactobacillus plantarum” value [3, 4] was 1011 number of sequences and the “Abundance of Lactobacillus reuteri” value [3, 4] was 339700 number of sequences. The “Abundance of Lactobacillus ruminis” value [3, 4] was 2160 number of sequences, the “Abundance of Lactobacillus salivarius” value [3, 4] was 3546 number of sequences and the “Abundance of Lactococcus garvieae” value [3, 4] was 3953 number of sequences. For the same compound, the “Abundance of Lactococcus lactis” value [3, 4] was 642300 number of sequences, the “Abundance of Lactococcus piscium” value [3, 4] was 4133 number of sequences and the “Abundance of Libanicoccus massiliensis” value [3, 4] was 4193 number of sequences. For the same compound, the “Abundance of Listeria monocytogenes” value [3, 4] was 2783 number of sequences, the “Abundance of Mordavella sp. Marseille-P3756” value [3, 4] was 1240 number of sequences and the “Abundance of Muribaculum intestinale” value [3, 4] was 21500 number of sequences. The “Abundance of Olsenella sp. Marseille-P2300” value [3, 4] was 4915 number of sequences, the “Abundance of Olsenella uli” value [3, 4] was 1483 number of sequences and the “Abundance of Olsenella umbonata” value [3, 4] was 1620 number of sequences. For the same compound, the “Abundance of Oscillibacter valericigenes” value [3, 4] was 1053 number of sequences, the “Abundance of Parabacteroides goldsteinii” value [3, 4] was 43 number of sequences and the “Abundance of Romboutsia ilealis” value [3, 4] was 21923 number of sequences. The “Abundance of Roseburia intestinalis” value [3, 4] was 1190 number of sequences, the “Abundance of Ruminiclostridium sp. KB18” value [3, 4] was 18969 number of sequences and the “Abundance of Streptococcus thermophilus” value [3, 4] was 7718 number of sequences. For the same compound, the “Abundance of uncultured Firmicutes bacterium” value [3, 4] was 1355 number of sequences, the “Change in the abundance of Alistipes fingoldii” value [3, 5] was “marked increase” and the “Change in the abundance of Alistipes shahii” value [3, 5] was “marked increase”. The “Change in the abundance of Olsenella uli” value [3, 5] was “marked increase”, the “Change in the abundance of Olsenella umbonata” value [3, 5] was “marked increase” and the “Change in the abundance of Romboutsia ilealis” value [3, 5] was “decrease”. For the same compound, the “Rank of Akkermansia muciniphila in the intestinal bacteria profile” value [3, 5] was “among the most dominant species” and the “Overall effect on the intestinal microbiota” value ([3]; HFD mice, oral administration) was “reshapes the intestinal microbiota HFD mice towards a healthy phenotype”.
